In ChEMBL document CHEMBL4680224, “Discovery of pyridine tetrahydroisoquinoline thiohydantoin derivatives with low blood-brain barrier penetration as the androgen receptor antagonists” (Eur J Med Chem, 2020):
Activity calls are given as the source filed them. The calls are words filed in the database; no cut-off is given here.

Experiments:
[1] = test system: LNCaP; experiment: Antiproliferative activity against human LNCaP cells assessed as reduction in cel viability after 72 hrs by MTT assay; format: functional, cell-based
[2] = test system: DU-145; experiment: Antiproliferative activity against human DU-145 cells assessed as reduction in cel viability after 72 hrs by MTT assay; format: functional, cell-based; settings: DU-145, 72 h
[3] = biological target: T1, Androgen receptor (Homo sapiens, UniProt P10275); experiment: Antagonist activity at Androgen receptor (unknown origin) expressed in COS7 cells by dual luciferase reporter gene assay relative to control; format: cell-based
T1 sequence (P10275 whole entry): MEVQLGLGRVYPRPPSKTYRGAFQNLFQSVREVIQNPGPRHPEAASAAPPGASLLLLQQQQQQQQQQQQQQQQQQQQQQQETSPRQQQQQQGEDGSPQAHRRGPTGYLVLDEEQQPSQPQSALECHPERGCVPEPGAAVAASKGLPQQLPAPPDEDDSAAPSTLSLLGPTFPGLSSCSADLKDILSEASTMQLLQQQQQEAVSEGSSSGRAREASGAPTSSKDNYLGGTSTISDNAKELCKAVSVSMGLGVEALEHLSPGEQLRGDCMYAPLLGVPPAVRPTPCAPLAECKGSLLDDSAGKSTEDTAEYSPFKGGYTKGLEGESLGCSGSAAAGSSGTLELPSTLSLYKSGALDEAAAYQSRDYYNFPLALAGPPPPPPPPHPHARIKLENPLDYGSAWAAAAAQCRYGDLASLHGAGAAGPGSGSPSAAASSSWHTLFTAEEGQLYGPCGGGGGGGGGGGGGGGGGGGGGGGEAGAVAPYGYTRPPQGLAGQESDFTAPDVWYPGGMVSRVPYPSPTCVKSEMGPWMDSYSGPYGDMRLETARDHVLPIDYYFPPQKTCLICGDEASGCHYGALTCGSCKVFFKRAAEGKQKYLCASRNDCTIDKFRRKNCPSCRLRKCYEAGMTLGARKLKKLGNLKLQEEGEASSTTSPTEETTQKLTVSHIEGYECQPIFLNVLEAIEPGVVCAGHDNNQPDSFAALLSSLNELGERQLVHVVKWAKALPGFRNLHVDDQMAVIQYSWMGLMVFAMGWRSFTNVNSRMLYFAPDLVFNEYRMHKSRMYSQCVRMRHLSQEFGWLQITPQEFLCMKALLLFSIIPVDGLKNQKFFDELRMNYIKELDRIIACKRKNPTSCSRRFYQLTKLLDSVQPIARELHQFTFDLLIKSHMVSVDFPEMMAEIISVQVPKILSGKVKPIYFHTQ

[4] = test system: LNCaP; experiment: Antitumour activity against human LNCaP cells xenografted in po dosed BALB/c nude mouse assessed as reduction in tumour volume administered daily for 21 days; format: functional, organism-based; settings: dose 15-45 mg/kg, time 21.0 day
[5] = test system: LNCaP; experiment: Antitumour activity against human LNCaP cells xenografted in po dosed BALB/c nude mouse assessed as reduction in tumour size administered daily for 21 days; format: functional, organism-based; settings: dose 15-45 mg/kg, time 21.0 day
[6] = test system: LNCaP; experiment: Antitumour activity against human LNCaP cells xenografted in po dosed BALB/c nude mouse assessed as reduction in tumour weight administered daily for 21 days; format: functional, organism-based; settings: dose 15-45 mg/kg, time 21.0 day
[7] = Toxicity in BALB/c mouse xenografted with LNCaP cells assessed as reduction in body weight at 15 to 45 mg/kg, po administered daily for 21 days; format: organism-based; settings: in vivo, 504 h, dose 15-45 mg/kg, time 21 day
[8] = test system: LNCaP; experiment: Antitumour activity against human LNCaP cells xenografted in BALB/c nude mouse assessed as reduction in tumour weight at 15 mg/kg, po administered daily for 21 days relative to control; format: functional; settings: 504 h, time 21 day, read-out: TGI
[9] = test system: LNCaP; experiment: Antitumour activity against human LNCaP cells xenografted in BALB/c nude mouse assessed as reduction in tumour weight at 30 mg/kg, po administered daily for 21 days relative to control; format: functional; settings: 504 h, time 21 day, read-out: TGI
[10] = test system: LNCaP; experiment: Antitumour activity against human LNCaP cells xenografted in BALB/c nude mouse assessed as reduction in tumour weight at 45 mg/kg, po administered daily for 21 days relative to control; format: functional; settings: Mus musculus, LNCaP, po, 504 h, time 21 day, read-out: TGI
[11] = Toxicity in BALB/c mouse xenografted with human LNCaP cells assessed as pathological changes in heart at 15 to 45 mg/kg, po administered daily for 21 days H and E staining based optical microscopic method; format: organism-based; settings: in vivo, 504 h, dose 15-45 mg/kg, time 21 day
[12] = test system: LNCaP; experiment: Antitumour activity against human LNCaP cells xenografted in BALB/c nude mouse assessed as decrease in PSA level at 45 mg/kg, po administered daily for 21 days by ELISA relative to control; format: functional; set-up: scale not given: the % may be the effect or the level left; settings: time 21 day
[13] = test system: LNCaP; experiment: Antitumour activity against human LNCaP cells xenografted in BALB/c nude mouse assessed as decrease in PSA level at 30 mg/kg, po administered daily for 21 days by ELISA relative to control; format: functional; set-up: scale not given: the % may be the effect or the level left; settings: time 21 day
[14] = test system: LNCaP; experiment: Antitumour activity against human LNCaP cells xenografted in BALB/c nude mouse assessed as decrease in PSA level at 15 mg/kg, po administered daily for 21 days by ELISA relative to control; format: functional; set-up: scale not given: the % may be the effect or the level left; settings: time 21 day
[15] = test system: LNCaP; experiment: Antitumour activity against human LNCaP cells xenografted in po dosed BALB/c nude mouse assessed as decrease in PSA level administered daily for 21 days by ELISA; format: functional, organism-based; settings: dose 15-45 mg/kg, time 21.0 day
[16] = test system: LNCaP; experiment: Antitumour activity against human LNCaP cells xenografted in BALB/c nude mouse assessed as increase in karyorrhexis at 15 to 45 mg/kg, po administered daily for 21 days by H and E staining based optical microscopic method; format: functional, organism-based; settings: dose 15-45 mg/kg, time 21.0 day
[17] = test system: LNCaP; experiment: Antitumour activity against human LNCaP cells xenografted in BALB/c nude mouse assessed as increase in necrosis at 15 to 45 mg/kg, po administered daily for 21 days by H and E staining based optical microscopic method; format: functional, organism-based; settings: dose 15-45 mg/kg, time 21.0 day
[18] = Toxicity in BALB/c mouse xenografted with human LNCaP cells assessed as pathological changes in kidney at 15 to 45 mg/kg, po administered daily for 21 days H and E staining based optical microscopic method; format: organism-based; settings: in vivo, 504 h, dose 15-45 mg/kg, time 21 day
[19] = Toxicity in BALB/c mouse xenografted with human LNCaP cells assessed as pathological changes in liver at 15 to 45 mg/kg, po administered daily for 21 days H and E staining based optical microscopic method; format: organism-based; settings: in vivo, 504 h, dose 15-45 mg/kg, time 21 day
[20] = Toxicity in BALB/c mouse xenografted with human LNCaP cells assessed as pathological changes in lung at 15 to 45 mg/kg, po administered daily for 21 days H and E staining based optical microscopic method; format: organism-based; settings: in vivo, 504 h, dose 15-45 mg/kg, time 21 day
[21] = Toxicity in BALB/c mouse xenografted with human LNCaP cells assessed as pathological changes in spleen at 15 to 45 mg/kg, po administered daily for 21 days H and E staining based optical microscopic method; format: organism-based; settings: in vivo, 504 h, dose 15-45 mg/kg, time 21 day
[22] = Toxicity in ICR mouse assessed as reduction in body weight at 100 to 1000 mg/kg, po administered for 14 days; format: organism-based; settings: in vivo, 336 h, dose 100-1000 mg/kg, time 14 day
[23] = Toxicity in ICR mouse assessed as pathological changes in seminal vesicle at 100 to 1000 mg/kg, po administered for 14 days by H and E staining based optical microscopic method; format: organism-based; settings: in vivo, 336 h, dose 100-1000 mg/kg, time 14 day
[24] = Toxicity in ICR mouse assessed as pathological changes in prostate […] at 100 to 1000 mg/kg, po administered for 14 days by H and E staining based optical microscopic method; format: organism-based; settings: in vivo, 336 h, dose 100-1000 mg/kg, time 14 day
[25] = Half life in human liver microsomes at 10 uM; format: ADME, Microsome
[26] = Stability in human liver microsomes assessed as parent compound remaining at 10 uM; format: ADME, Microsome; settings: read-out: Stabilty
[27] = in vitro; settings: human, liver microsomes
Description: Intrinsic clearance in human liver microsomes at 10 uM

- IC50 [1]: 14.8 µM
- IC50 [2]: 94.3 µM
- IC50 [3]: 6.17 µM
- half-life at 10 µM [25]: 4.36 h
- remaining at 10 µM [26]: 87.1%
- CLint scaled at 10 µM [27]: 7.86 mL/min/kg
Compound: CCOC(=O)Nc1cc2c(cc1F)CC1C(=O)N(c3cnc(C#N)c(C(F)(F)F)c3)C(=S)N1C2 (configuration not stated)
- Activity [4]: Dose-dependent effect
- Activity [5]: Dose-dependent effect
- Activity [6]: Dose-dependent effect
- Activity [7]: Non-Toxic
- inhibition in vivo at 15 mg/kg [8]: 12%
- inhibition in vivo at 30 mg/kg [9]: 39%
- inhibition in vivo at 45 mg/kg [10]: 79%
- Activity [11]: Non-Toxic
- Activity [12]: 73%
- Activity [13]: 43%
- Activity [14]: 24%
- Activity [15]: Dose-dependent effect
- Activity [16]: Active
- Activity [17]: Active
- Activity [18]: Non-Toxic
- Activity [19]: Non-Toxic
- Activity [20]: Non-Toxic
- Activity [21]: Non-Toxic
- Activity [22]: Non-Toxic
- Activity [23]: Non-Toxic
- Activity [24]: Non-Toxic
